# Measured values as given in US9388198B2, “Heterocyclic amide derivatives as P2X7 receptor antagonists” (ACTELION PHARMACEUTICALS LTD, priority 2014, dated 2016).
# Target: human recombinant P2X7 receptor (Homo sapiens (Human), UniProt Q99572)
# Experiment: YO-PRO1 uptake assay in HEK cells stably expressing human P2X7
# Type: cell-based
# Conditions: HEK-293 cells expressing human recombinant P2X7; 250 μM ATP, 90 minutes; YO-PRO-1 fluorescence; read-out: IC50 (antagonistic activity with respect to the P2X7 receptor)
# Protocol: Cell Line Generation and YO-PRO Assay Cell line generation was performed in general according to established molecular cloning protocols. Specifically, RNA was extracted from human whole blood using the Qiagen RNeasy kit (Qiagen, CH) according to the manufacturer's instructions. […] BC011913) was amplified with the following primers: [NT] and [NT] The amplified sequence was subsequently ligated into a pcDNA3.1 (+) NotI, NheI digested plasmid. Human embryonic kidney (HEK) cells (ATCC CRL-1573, Manassas, Va., USA) were transfected with the pcDNA3.1 (+). hP2X7 plasmid using lipofectamine 2000 (Invitrogen AG, CH) according to the manufacturer's instructions. Following a 24 h exposure to DNA, cells were trypsinized and re-seeded at low density in the presence of 250 μg Geneticin. Geneticin resistant cells were then selected during two consecutive rounds of cloning by serial limiting dilution with visual inspection. […] Specific cell clones were chosen based on RNA and protein expression. […] Cells were grown to confluency in adherent culture at 37° C. in a humidified 5% CO2 incubator (split 1⁄5 every 3-4 days with DMEM, 10% FCS, 1% Penicillin/Streptomycin, 250 μg/ml Geneticin). […] Medium was removed from cells and 50 μl of assay buffer containing 0.5 μM YO-[…] was added into the wells. Solutions of antagonist compounds were prepared by serial dilutions of a 10 mM DMSO solution of the antagonist into PBS using a BioMek (Beckman Coulter). Each concentration was performed in duplicate. […] The cells were incubated with the antagonists of the present invention together with ATP at a final concentration of 250 μM for 90 minutes. During this time period, four time points were taken. Each time point comprised the average of several measurements made within a few seconds. Fluorescence was measured in the FLIPR tetra (Molecular Devices) using the filters appropriate for YO-[…] fluorescence (excitation 485/20, emission 530/25). The FLIPR tetra was equipped with Molecular Devices Screen Works system control software to define and run experimental protocols. […] For IC50 measurements the maximum intensity is plotted against the concentration of compound to determine IC50 values.
# Sequence of human recombinant P2X7 receptor (Q99572 whole entry): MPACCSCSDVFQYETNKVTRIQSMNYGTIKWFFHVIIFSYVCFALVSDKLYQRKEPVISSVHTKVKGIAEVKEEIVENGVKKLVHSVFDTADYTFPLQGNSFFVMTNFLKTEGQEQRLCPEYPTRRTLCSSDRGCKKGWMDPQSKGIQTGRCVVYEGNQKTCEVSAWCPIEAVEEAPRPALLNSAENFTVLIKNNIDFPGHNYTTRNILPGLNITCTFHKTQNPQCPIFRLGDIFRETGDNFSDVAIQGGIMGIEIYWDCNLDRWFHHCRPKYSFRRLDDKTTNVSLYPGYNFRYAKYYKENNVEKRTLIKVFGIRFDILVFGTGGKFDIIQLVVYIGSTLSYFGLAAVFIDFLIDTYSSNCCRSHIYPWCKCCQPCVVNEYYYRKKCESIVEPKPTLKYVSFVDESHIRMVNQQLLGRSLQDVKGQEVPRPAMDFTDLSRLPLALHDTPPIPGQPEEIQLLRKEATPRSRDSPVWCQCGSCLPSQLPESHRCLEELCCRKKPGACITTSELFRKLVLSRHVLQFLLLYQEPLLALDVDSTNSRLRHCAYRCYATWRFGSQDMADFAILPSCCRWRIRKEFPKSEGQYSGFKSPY
row,Compound,IC50
1,"O=C(NC(CO)C1CCCCCC1)C1COc2ncsc21 (centres unmarked) [Example 1, N-(1-cycloheptyl-2-hydroxyethyl)-5,6-dihydrofuro[2,3-d]thiazole-6-carboxamide]",818 nM
2,"O=C(N[C@H](CO)C1CCCCC1)C1CCCCc2ncsc21 (stereo partly drawn) [Example 17, N-((S)-1-cyclohexyl-2-hydroxyethyl)-5,6,7,8-tetrahydro-4H-cyclohepta[d]thiazole-8-carboxamide]",543 nM
3,"O=C(NCC1(c2ccc(Cl)nc2)CCCCC1)C1CCCc2ncsc21 (centres unmarked) [Example 13, N-((1-(6-chloropyridin-3-yl)cyclohexyl)methyl)-4,5,6,7-tetrahydrobenzo[d]thiazole-7-carboxamide]",3.4 nM
4,"O=C(NCC(c1ccc(Cl)nc1)N1CCC(F)(F)CC1)C1CCOc2ncsc21 (centres unmarked) [Example 10, N-(2-(6-chloropyridin-3-yl)-2-(4,4-difluoropiperidin-1-yl)ethyl)-6,7-dihydro-5H-pyrano[2,3-d]thiazole-7-carboxamide]",74 nM
5,"O=C(NCC1(c2ccc(Cl)nc2)CCC(F)(F)CC1)C1CCCc2ncsc21 (centres unmarked) [Example 14, N-((1-(6-chloropyridin-3-yl)-4,4-difluorocyclohexyl)methyl)-4,5,6,7-tetrahydrobenzo[d]thiazole-7-carboxamide]",6.3 nM
6,"O=C(NCC(c1cnc(C(F)(F)F)nc1)N1CCOCC1)C1CCCc2ncsc21 (centres unmarked) [Example 15, N-(2-morpholino-2-(2-(trifluoromethyl)pyrimidin-5-yl)ethyl)-4,5,6,7-tetrahydrobenzo[d]thiazole-7-carboxamide]",33 nM
7,"O=C(N[C@H](CO)C1CCCCC1)C1CCc2ncsc21 (stereo partly drawn) [Example 5, N-((S)-1-cyclohexyl-2-hydroxyethyl)-5,6-dihydro-4H-cyclopenta[d]thiazole-6-carboxamide]",272 nM
8,"Cc1ncc(C(CNC(=O)C2CCc3ncsc32)N2CCC(F)(F)CC2)cn1 (centres unmarked) [Example 7, N-(2-(4,4-difluoropiperidin-1-yl)-2-(2-methylpyrimidin-5-yl)ethyl)-5,6-dihydro-4H-cyclopenta[d]thiazole-6-carboxamide]",478 nM
9,"Cc1ncc(C(CNC(=O)C2COc3ncsc32)N2CCC(F)(F)CC2)cn1 (centres unmarked) [Example 3, N-(2-(4,4-difluoropiperidin-1-yl)-2-(2-methylpyrimidin-5-yl)ethyl)-5,6-dihydrofuro[2,3-d]thiazole-6-carboxamide]",2040 nM
10,"O=C(N[C@H](CO)C1CCCCC1)C1CCCCc2ncsc21 (stereo partly drawn) [Example 16, N-((S)-1-cyclohexyl-2-hydroxyethyl)-5,6,7,8-tetrahydro-4H-cyclohepta[d]thiazole-8-carboxamide]",348 nM
11,"O=C(N[C@H](CO)C1CCCCC1)C1CCOc2ncsc21 (stereo partly drawn) [Example 8, N-((S)-1-cyclohexyl-2-hydroxyethyl)-6,7-dihydro-5H-pyrano[2,3-d]thiazole-7-carboxamide]",340 nM
12,"Cc1ncc(C(CNC(=O)C2CCc3ncsc32)N2CCOCC2)cn1 (centres unmarked) [Example 6, N-(2-(2-methylpyrimidin-5-yl)-2-morpholinoethyl)-5,6-dihydro-4H-cyclopenta[d]thiazole-6-carboxamide]",1370 nM
13,"O=C(NCC(c1ccc(C(F)(F)F)nc1)N1CCOCC1)C1COc2ncsc21 (centres unmarked) [Example 4, N-(2-morpholino-2-(6-(trifluoromethyl)pyridin-3-yl)ethyl)-5,6-dihydrofuro[2,3-d]thiazole-6-carboxamide]",332 nM
14,"Cc1ncc(C(CNC(=O)C2CCOc3ncsc32)N2CCOCC2)cn1 (centres unmarked) [Example 9, N-(2-(2-methylpyrimidin-5-yl)-2-morpholinoethyl)-6,7-dihydro-5H-pyrano[2,3-d]thiazole-7-carboxamide]",1430 nM
15,"O=C(NCC1(c2ccc(Cl)nc2)CCCCC1)C1COc2ncsc21 (centres unmarked) [Example 2, N-((1-(6-chloropyridin-3-yl)cyclohexyl)methyl)-5,6-dihydrofuro[2,3-d]thiazole-6-carboxamide]",28 nM
16,"O=C(N[C@H](CO)C1CCCCC1)C1CCCc2ncsc21 (stereo partly drawn) [Example 12, N-((S)-1-cyclohexyl-2-hydroxyethyl)-4,5,6,7-tetrahydrobenzo[d]thiazole-7-carboxamide]",41 nM
17,"C[C@@H](NC(=O)C1CCCc2ncsc21)C1CCCCC1 (stereo partly drawn) [Example 11, N-((R)-1-cyclohexylethyl)-4,5,6,7-tetrahydrobenzo[d]thiazole-7-carboxamide]",60 nM
